Measured values: patent US12350403B2, “Methods of making therapeutic polymeric material” (priority 2015, dated 2025)
≈ marks a conversion by molar mass, not a printed value.

Experiments:
[1] = cited from earlier work
[2] = value used for minimum release rate; cited from earlier work
[3] = tested on: Xen 29; test: Minimum inhibitory concentration against Xen 29; assay type: cell-based, S. aureus; conditions: Staphylococcus aureus, 29, read-out: Minimum inhibitory concentration of rifampin against Xen 29
[4] = human hip, assumed; cited from earlier work
[5] = UV-Vis spectra of vancomycin eluted from unirradiated and irradiated blend; assay type: physicochemical; conditions: blended in the polymeric material, with and without terminal irradiation
Protocol: Vancomycin HCl-blended UHMWPE was prepared with a concentration of 6 wt % vancomycin as described in Example 3. Consolidation was performed at 170° C. for 10 min at 20 MPa. The platens were then cooled down with air down to approximately 162° C. and then cooled down with water starting at approximately 156° C. down to about room temperature to obtain an approximately 3 mm-thick puck (approximately 10.5 mm diameter). Consolidated vancomycin-blended samples (VPE) were then either used as is or gamma irradiated at 100 kGy. UHMWPE without additives was used as control. In vitro elution of samples in all three groups was conducted in phosphate buffered saline (PBS) as described in Example 3. After no detectable vancomycin could be measured through UV-Vis, the presence of vancomycin grafted onto the surface of the polymer was determined by labeling with an anti-vancomycin antibody.

[6] = tested on: Xen 29; conditions: cited from earlier work

Row | Compound | share of intravenous antibiotic that penetrates bone [1] | minimum inhibitory concentration [2] [µg/mL] | MIC [3] [µg/mL] | approximate clearance half-life from the joint space [4] [h] | effect of irradiation on vancomycin (UV absorbance of eluted vancomycin) [5] | Minimum inhibitory concentration of vancomycin against Xen 29 [6] [µg/mL]
1 | Cc1nnc(SCC2=C(C(=O)O)N3C(=O)[C@@H](NC(=O)Cn4cnnn4)[C@H]3SC2)s1 [cefazolin] | 7-15% | – | – | – | – | –
2 | CO/N=C(\C(=O)N[C@@H]1C(=O)N2C(C(=O)O)=C(CSc3nc(=O)c(=O)[nH]n3C)CS[C@H]12)c1csc(N)n1 [ceftriaxone] | 5-19% | – | – | – | – | –
3 | CO[C@H]1/C=C/O[C@@]2(C)Oc3c(C)c(O)c4c(O)c(c(/C=N/N5CCN(C)CC5)c(O)c4c3C2=O)NC(=O)/C(C)=C\C=C\[C@H](C)[C@H](O)[C@@H](C)[C@@H](O)[C@@H](C)[C@H](OC(C)=O)[C@@H]1C [rifampin] | – | 1 (≈ 1.22 µM) | 0.01 (≈ 0.0122 µM) | – | – | –
4 | CN[C@H](CC(C)C)C(=O)N[C@H]1C(=O)N[C@@H](CC(N)=O)C(=O)N[C@H]2C(=O)N[C@H]3C(=O)N[C@H](C(=O)N[C@H](C(=O)O)c4cc(O)cc(O)c4-c4cc3ccc4O)[C@H](O)c3ccc(c(Cl)c3)Oc3cc2cc(c3O[C@@H]2O[C@H](CO)[C@@H](O)[C@H](O)[C@H]2O[C@H]2C[C@](C)(N)[C@H](O)[C@H](C)O2)Oc2ccc(cc2Cl)[C@H]1O [vancomycin] | 5-20% | 2 (≈ 1.38 µM) | – | ~3.5 | not affected by irradiation | 1
